Values of other authors, collected in patent US11737458B2, “Fibrous substrate for capture of gram negative bacteria” (Kimberly-Clark Worldwide, Inc., priority 2015, dated 2023).

C=CC(=O)O [acrylic acid]
pKa value: about 4.3
